The source of these data is US11066396B2 (priority 2016, dated 2021).

The target of one test is HDAC5 (Homo sapiens (Human), UniProt Q9UQL6). The note with it: read-out: HDAC5 IC50.
For another test, the target named is HDAC8 (Homo sapiens (Human), UniProt Q9BY41). The note with it: read-out: HDAC8 IC50.
The next test has as its target HDAC1 (Homo sapiens (Human), UniProt Q13547). The note with it: read-out: HDAC1 IC50.

Sequence of HDAC1 (Q13547 whole entry): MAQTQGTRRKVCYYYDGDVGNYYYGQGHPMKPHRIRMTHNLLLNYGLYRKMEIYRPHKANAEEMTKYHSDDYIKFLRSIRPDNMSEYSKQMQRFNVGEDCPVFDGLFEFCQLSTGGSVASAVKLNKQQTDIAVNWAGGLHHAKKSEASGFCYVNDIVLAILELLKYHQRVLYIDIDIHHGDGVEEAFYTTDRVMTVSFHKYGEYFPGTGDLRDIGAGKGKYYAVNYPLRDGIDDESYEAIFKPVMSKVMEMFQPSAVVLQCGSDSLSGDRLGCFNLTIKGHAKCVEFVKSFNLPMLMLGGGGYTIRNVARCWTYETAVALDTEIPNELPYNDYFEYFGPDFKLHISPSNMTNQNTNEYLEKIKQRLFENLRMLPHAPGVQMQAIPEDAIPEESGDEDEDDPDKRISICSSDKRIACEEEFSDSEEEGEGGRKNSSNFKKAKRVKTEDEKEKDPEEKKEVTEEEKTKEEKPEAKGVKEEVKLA
Sequence of HDAC8 (Q9BY41 whole entry): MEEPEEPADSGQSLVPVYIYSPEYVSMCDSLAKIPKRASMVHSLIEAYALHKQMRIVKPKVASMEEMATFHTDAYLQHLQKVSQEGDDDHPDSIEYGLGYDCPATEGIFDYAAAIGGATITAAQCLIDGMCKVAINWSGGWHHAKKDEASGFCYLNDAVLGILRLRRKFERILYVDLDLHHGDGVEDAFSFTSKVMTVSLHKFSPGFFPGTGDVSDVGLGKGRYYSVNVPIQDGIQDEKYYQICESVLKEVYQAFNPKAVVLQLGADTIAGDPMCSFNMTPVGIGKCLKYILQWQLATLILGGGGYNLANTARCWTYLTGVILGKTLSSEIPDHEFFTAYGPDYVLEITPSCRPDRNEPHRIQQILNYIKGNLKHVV
Sequence of HDAC5 (Q9UQL6 656-1122): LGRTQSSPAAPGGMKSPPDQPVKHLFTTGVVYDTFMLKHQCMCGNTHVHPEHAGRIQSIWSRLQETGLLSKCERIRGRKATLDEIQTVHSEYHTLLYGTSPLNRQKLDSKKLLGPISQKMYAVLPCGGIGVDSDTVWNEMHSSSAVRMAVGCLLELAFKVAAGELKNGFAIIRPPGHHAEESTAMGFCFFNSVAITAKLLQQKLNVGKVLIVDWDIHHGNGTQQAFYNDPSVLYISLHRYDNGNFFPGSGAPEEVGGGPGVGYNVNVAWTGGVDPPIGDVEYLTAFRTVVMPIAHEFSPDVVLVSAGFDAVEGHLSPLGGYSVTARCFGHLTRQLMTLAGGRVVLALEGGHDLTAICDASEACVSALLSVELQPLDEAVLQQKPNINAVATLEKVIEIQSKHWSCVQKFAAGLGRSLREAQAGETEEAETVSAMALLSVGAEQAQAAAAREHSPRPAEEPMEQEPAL

Consider `CC(C(=O)N(Cc1ccc(-c2noc(C(F)(F)F)n2)cn1)c1cccc(F)c1)c1ccn(C)n1` (racemic) [Example 58, N-(3-fluorophenyl)-2-(1-methyl-1H-pyrazol-3-yl)-N-((5-(5-(trifluoromethyl)-1,2,4-oxadiazol-3-yl)pyridin-2-yl)methyl)propanamide], for which the IC50 at HDAC5 was determined as 0.73 µM; on HDAC8, 1.7 µM; at HDAC1, 0.22 µM.

Regarding `O=C1CCC(c2ccccc2F)N1c1ccc(-c2noc(C(F)(F)F)n2)cc1F` (racemic) [Example 118, 1-(2-fluoro-4-(5-(trifluoromethyl)-1,2,4-oxadiazol-3-yl)phenyl)-5-(2-fluorophenyl)pyrrolidin-2-one], the figures for the IC50 at HDAC5, at HDAC8 and on HDAC1 were 0.13 µM, 2.5 µM and 0.57 µM, respectively.

Turning to `O=C(C(Cc1ccc(-c2noc(C(F)(F)F)n2)cn1)c1cccc(C(F)(F)F)c1)N1CC[S+]([O-])CC1` (racemic) [Example 199, 4-(3-{5-[5-(trifluoromethyl)-1,2,4-oxadiazol-3-yl]pyridin-2-yl}-2-[3-(trifluoromethyl)phenyl]propanoyl)-llambda~4~,4-thiazinan-1-one], the IC50 was 2.1 µM on HDAC5, 9.9 µM at HDAC8 and 4.1 µM on HDAC1.

`CC(Oc1cc(-c2noc(C(F)(F)F)n2)ccn1)c1nc2ccccc2[nH]1` (racemic) [Example 203, 2-[1-({4-[5-(trifluoromethyl)-1,2,4-oxadiazol-3-yl]pyridin-2-yl}oxy)ethyl]-1H-benzimidazole]: the IC50 on HDAC5 was determined as 0.13 µM; at HDAC8, 0.9 µM; on HDAC1 it was 0.13 µM.

Turning to `CC(Oc1nccc(-c2noc(C(F)(F)F)n2)c1Cl)c1cccnc1` (racemic) [Example 256, 3-chloro-2-[1-(pyridin-3-yl)ethoxy]-4-[5-(trifluoromethyl)-1,2,4-oxadiazol-3-yl]pyridine], the IC50 was found to be 0.2 µM on HDAC5, 2.3 µM on HDAC8 and 3.3 µM on HDAC1.

With `O=C1NCCCC1NCc1ccc(-c2noc(C(F)(F)F)n2)cn1` (racemic) [Example 458, 3-[({5-[5-(trifluoromethyl)-1,2,4-oxadiazol-3-yl]pyridin-2-yl}methyl)amino]piperidin-2-one], the IC50 on HDAC5 is 0.29 µM; at HDAC8, 2.8 µM; at HDAC1, 8.3 µM.

`CC(C)C(=O)NC(Cc1ccc(-c2noc(C(F)(F)F)n2)cn1)c1cccc(C(F)(F)F)c1` (racemic) [Example 478, 2-methyl-N-(2-{5-[5-(trifluoromethyl)-1,2,4-oxadiazol-3-yl]pyridin-2-yl}-1-[3-(trifluoromethyl)phenyl]ethyl)propanamide]: the IC50 on HDAC5 amounted to 0.5 µM; at HDAC8, 45 µM; at HDAC1 it was 0.68 µM.

As for `CCCC(=O)NC(Cc1ccc(-c2noc(C(F)(F)F)n2)cn1)c1cccc(C(F)(F)F)c1` (racemic) [Example 479, N-(2-{5-[5-(trifluoromethyl)-1,2,4-oxadiazol-3-yl]pyridin-2-yl}-1-[3-(trifluoromethyl)phenyl]ethyl)butanamide], the IC50 at HDAC5 came out at 0.44 µM; at HDAC8 it was 45 µM; at HDAC1, 0.61 µM.

On to `COCC(=O)NC(Cc1ccc(-c2noc(C(F)(F)F)n2)cn1)c1cccc(C(F)(F)F)c1` (racemic) [Example 480, 2-methoxy-N-(2-{5-[5-(trifluoromethyl)-1,2,4-oxadiazol-3-yl]pyridin-2-yl}-1-[3-(trifluoromethyl)phenyl]ethyl)acetamide], for which the IC50 at HDAC5 worked out at 0.62 µM; at HDAC8, 5.3 µM; at HDAC1, 0.67 µM.

In the case of `CC1(C(=O)NC(Cc2ccc(-c3noc(C(F)(F)F)n3)cn2)c2cccc(C(F)(F)F)c2)COC1` (racemic) [Example 482, 3-methyl-N-(2-{5-[5-(trifluoromethyl)-1,2,4-oxadiazol-3-yl]pyridin-2-yl}-1-[3-(trifluoromethyl)phenyl]ethyl)oxetane-3-carboxamide], the values for the IC50 at HDAC5, at HDAC8 and on HDAC1 were 0.48 µM, 8.5 µM and 0.79 µM, respectively.

For the molecule `O=C(NC(Cc1ccc(-c2noc(C(F)(F)F)n2)cn1)c1cccc(C(F)(F)F)c1)C1CCOCC1` (racemic) [Example 483, N-(2-{5-[5-(trifluoromethyl)-1,2,4-oxadiazol-3-yl]pyridin-2-yl}-1-[3-(trifluoromethyl)phenyl]ethyl)oxane-4-carboxamide], the IC50 on HDAC5 was 0.51 µM; on HDAC8, 6.1 µM; at HDAC1 it was 0.63 µM.

Turning to `O=C(NC(Cc1ccc(-c2noc(C(F)(F)F)n2)cn1)c1cccc(C(F)(F)F)c1)c1ncccn1` (racemic) [Example 484, N-(2-{5-[5-(trifluoromethyl)-1,2,4-oxadiazol-3-yl]pyridin-2-yl}-1-[3-(trifluoromethyl)phenyl]ethyl)pyrimidine-2-carboxamide], the IC50 was determined as 0.72 µM on HDAC5, 2.5 µM on HDAC8 and 0.6 µM on HDAC1.

Consider `O=C(CN1CCOCC1)NC(Cc1ccc(-c2noc(C(F)(F)F)n2)cn1)c1cccc(C(F)(F)F)c1` (racemic) [Example 485, 2-(morpholin-4-yl)-N-(2-{5-[5-(trifluoromethyl)-1,2,4-oxadiazol-3-yl]pyridin-2-yl}-1-[3-(trifluoromethyl)phenyl]ethyl)acetamide], for which the IC50 on HDAC5 turned out to be 1.1 µM; at HDAC8 it was 11 µM; at HDAC1, 1.1 µM.

For the molecule `O=C(NC(Cc1ccc(-c2noc(C(F)(F)F)n2)cn1)c1cccc(C(F)(F)F)c1)c1cccnc1` (racemic) [Example 487, N-(2-{5-[5-(trifluoromethyl)-1,2,4-oxadiazol-3-yl]pyridin-2-yl}-1-[3-(trifluoromethyl)phenyl]ethyl)pyridine-3-carboxamide], the IC50 was 0.38 µM at HDAC5, 5.3 µM on HDAC8 and 0.67 µM at HDAC1.

Turning to `O=C1COC[C@@H](c2ccccc2)N1c1ccc(-c2noc(C(F)(F)F)n2)c(F)c1` [Example 2, (R)-4-(3-Fluoro-4-(5-(trifluoromethyl)-1,2,4-oxadiazol-3-yl)phenyl)-5-phenylmorpholin-3-one], the IC50 at HDAC5 was 0.018 µM; on HDAC8, 4.6 µM; at HDAC1, 0.48 µM.

For the molecule `Cc1noc([C@@H]2CCC(=O)N2c2ccc(-c3noc(C(F)(F)F)n3)c(F)c2F)n1` [Example 12, (S)-1-(2,3-Difluoro-4-(5-(trifluoromethyl)-1,2,4-oxadiazol-3-yl)phenyl)-5-(3-methyl-1,2,4-oxadiazol-5-yl)pyrrolidin-2-one], the IC50 at HDAC5 came out at 0.011 µM; on HDAC8, 6 µM; on HDAC1, 2 µM.

`O=C1OC[C@@H](c2ccccc2)N1c1cc(F)c(-c2noc(C(F)(F)F)n2)cc1F` [Example 16, (R)-3-(2,5-Difluoro-4-(5-(trifluoromethyl)-1,2,4-oxadiazol-3-yl)phenyl)-4-phenyloxazolidin-2-one]: the IC50 on HDAC5 worked out at 0.019 µM; on HDAC8, 6 µM; on HDAC1 it was 1 µM.

`O=C(C1CCS(=O)(=O)CC1)N(Cc1ccc(-c2noc(C(F)(F)F)n2)cc1)c1cccc(C(F)(F)F)c1` [Example 30, N-(4-(5-(Trifluoromethyl)-1,2,4-oxadiazol-3-yl)benzyl)-N-(3-(trifluoromethyl)phenyl)tetrahydro-2H-thiopyran-4-carboxamide 1,1-dioxide]: the 50% inhibitory concentration (IC50) on HDAC5 came out at 1.2 µM; on HDAC8, 4.3 µM; at HDAC1 it was 1.34 µM.

With `O=C1CNCC(c2ccccc2)N1c1ccc(-c2noc(C(F)(F)F)n2)cc1` (stereo not drawn) [Example 39, 6-phenyl-1-(4-(5-(trifluoromethyl)-1,2,4-oxadiazol-3-yl)phenyl)piperazin-2-one], the IC50 on HDAC5 was 0.025 µM; at HDAC8 it was 1.6 µM; at HDAC1, 0.55 µM.

Turning to `O=C1CCCC(c2ccccc2)N1c1ccc(-c2noc(C(F)(F)F)n2)cc1` (stereo not drawn) [Example 40, 6-phenyl-1-(4-(5-(trifluoromethyl)-1,2,4-oxadiazol-3-yl)phenyl)piperidin-2-one], the IC50 amounted to 0.034 µM on HDAC5, 0.8 µM on HDAC8 and 0.41 µM at HDAC1.

Take `O=C1CCC(c2ccccc2)N1c1cc(F)c(-c2noc(C(F)(F)F)n2)cc1F` (stereo not drawn) [Example 41, 1-(2,5-difluoro-4-(5-(trifluoromethyl)-1,2,4-oxadiazol-3-yl)phenyl)-5-phenylpyrrolidin-2-one]: the IC50 amounted to 0.019 µM on HDAC5, 6 µM at HDAC8 and 0.61 µM on HDAC1.

As to `O=C1CCC(c2ccccc2)N1c1ccc(-c2noc(C(F)(F)F)n2)cc1F` (stereo not drawn) [Example 42, 1-(2-fluoro-4-(5-(trifluoromethyl)-1,2,4-oxadiazol-3-yl)phenyl)-5-phenylpyrrolidin-2-one], the IC50 on HDAC5 worked out at 0.027 µM; at HDAC8 it was 1.4 µM; on HDAC1 it was 0.53 µM.

Take `O=C1CCC(c2ccccc2)N1c1ccc(-c2noc(C(F)(F)F)n2)c(F)c1` (stereo not drawn) [Example 43, 1-(3-fluoro-4-(5-(trifluoromethyl)-1,2,4-oxadiazol-3-yl)phenyl)-5-phenylpyrrolidin-2-one]: the IC50 turned out to be 0.074 µM at HDAC5, 3.6 µM on HDAC8 and 1.9 µM on HDAC1.

With `O=C(N1CCOCC1)N(Cc1ccc(-c2noc(C(F)(F)F)n2)cn1)c1cccc(C(F)(F)F)c1` [Example 49, N-((5-(5-(trifluoromethyl)-1,2,4-oxadiazol-3-yl)pyridin-2-yl)methyl)-N-(3-(trifluoromethyl)phenyl)morpholine-4-carboxamide], the IC50 at HDAC5 came to 1.9 µM; at HDAC8, 10 µM; at HDAC1 it was 1 µM.

With `O=C(C1CCS(=O)(=O)CC1)N(Cc1ccc(-c2noc(C(F)(F)F)n2)cn1)c1cccc(F)c1` [Example 55, N-(3-fluorophenyl)-N-((5-(5-(trifluoromethyl)-1,2,4-oxadiazol-3-yl)pyridin-2-yl)methyl)tetrahydro-2H-thiopyran-4-carboxamide 1,1-dioxide], the IC50 came out at 1.1 µM on HDAC5, 2.3 µM on HDAC8 and 0.25 µM on HDAC1.
